In patent publication US11447505B1, “Pyrrolo[2,3-b]pyridine compounds and their use in the treatment of cancer” (priority 2017, dated 2022):

Columns and labels:
[1] = target: ROCK2 (Homo sapiens (Human), UniProt O75116); assay: ROCK2 kinase assay (IMAP fluorescence polarization); format: biochemical; details: 1 μM ATP; read-out: ROCK2 Average Ki
[2] = target: MRCKα (Homo sapiens (Human), UniProt Q5VT25); assay: MRCKα kinase assay (IMAP fluorescence polarization); format: biochemical; details: 1 μM ATP; read-out: MRCK-a Average Ki
Text: (§1) MRCKα, MRCKβ, ROCK1 and ROCK2 Kinase Assays

[3] = target: MRCKβ (Homo sapiens (Human), UniProt Q9Y5S2); assay: MRCKβ kinase assay (IMAP fluorescence polarization); format: biochemical; details: 1 μM ATP; read-out: MRCK-B Average Ki
Text: as §1

[4] = target: ROCK1 (Homo sapiens (Human), UniProt Q13464); details: read-out: ROCK1 Average Ki; 1 μM ATP
Chain of ROCK1 (Q13464 2-1354 limits assumed): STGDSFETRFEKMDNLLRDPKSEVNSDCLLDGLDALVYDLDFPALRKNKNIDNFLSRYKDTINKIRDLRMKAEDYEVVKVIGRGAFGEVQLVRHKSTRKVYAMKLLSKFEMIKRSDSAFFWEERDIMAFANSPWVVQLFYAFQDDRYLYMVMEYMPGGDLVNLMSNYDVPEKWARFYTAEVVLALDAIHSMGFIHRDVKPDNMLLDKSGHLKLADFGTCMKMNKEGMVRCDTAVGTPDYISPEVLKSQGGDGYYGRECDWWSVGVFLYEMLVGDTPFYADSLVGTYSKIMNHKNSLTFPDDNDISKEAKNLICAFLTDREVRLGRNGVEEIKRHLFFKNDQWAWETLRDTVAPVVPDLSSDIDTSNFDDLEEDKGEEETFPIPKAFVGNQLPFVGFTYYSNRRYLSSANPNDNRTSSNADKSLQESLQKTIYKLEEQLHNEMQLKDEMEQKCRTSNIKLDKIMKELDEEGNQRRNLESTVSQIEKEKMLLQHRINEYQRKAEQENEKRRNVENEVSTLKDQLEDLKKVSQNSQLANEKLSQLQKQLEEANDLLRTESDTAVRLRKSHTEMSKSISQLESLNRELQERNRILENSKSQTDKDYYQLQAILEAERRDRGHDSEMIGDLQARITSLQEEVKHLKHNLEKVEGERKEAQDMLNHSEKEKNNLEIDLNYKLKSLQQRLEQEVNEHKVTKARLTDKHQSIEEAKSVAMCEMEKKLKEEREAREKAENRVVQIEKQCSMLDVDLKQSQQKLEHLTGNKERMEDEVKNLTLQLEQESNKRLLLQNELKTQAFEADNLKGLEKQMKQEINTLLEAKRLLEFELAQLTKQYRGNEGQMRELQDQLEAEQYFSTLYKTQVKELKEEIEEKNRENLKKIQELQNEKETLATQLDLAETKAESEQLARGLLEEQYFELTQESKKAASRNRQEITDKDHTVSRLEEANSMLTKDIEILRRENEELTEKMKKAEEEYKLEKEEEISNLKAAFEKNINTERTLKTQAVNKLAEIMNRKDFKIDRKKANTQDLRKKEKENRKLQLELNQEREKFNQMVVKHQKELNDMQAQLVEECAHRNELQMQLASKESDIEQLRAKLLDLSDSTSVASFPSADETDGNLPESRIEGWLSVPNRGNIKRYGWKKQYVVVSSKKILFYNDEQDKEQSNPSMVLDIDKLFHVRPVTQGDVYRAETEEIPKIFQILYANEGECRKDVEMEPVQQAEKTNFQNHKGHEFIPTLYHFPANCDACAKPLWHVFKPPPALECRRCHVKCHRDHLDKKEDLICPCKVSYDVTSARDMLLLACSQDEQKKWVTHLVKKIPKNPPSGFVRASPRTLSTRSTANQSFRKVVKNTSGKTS

Chain of ROCK2 (O75116 whole entry): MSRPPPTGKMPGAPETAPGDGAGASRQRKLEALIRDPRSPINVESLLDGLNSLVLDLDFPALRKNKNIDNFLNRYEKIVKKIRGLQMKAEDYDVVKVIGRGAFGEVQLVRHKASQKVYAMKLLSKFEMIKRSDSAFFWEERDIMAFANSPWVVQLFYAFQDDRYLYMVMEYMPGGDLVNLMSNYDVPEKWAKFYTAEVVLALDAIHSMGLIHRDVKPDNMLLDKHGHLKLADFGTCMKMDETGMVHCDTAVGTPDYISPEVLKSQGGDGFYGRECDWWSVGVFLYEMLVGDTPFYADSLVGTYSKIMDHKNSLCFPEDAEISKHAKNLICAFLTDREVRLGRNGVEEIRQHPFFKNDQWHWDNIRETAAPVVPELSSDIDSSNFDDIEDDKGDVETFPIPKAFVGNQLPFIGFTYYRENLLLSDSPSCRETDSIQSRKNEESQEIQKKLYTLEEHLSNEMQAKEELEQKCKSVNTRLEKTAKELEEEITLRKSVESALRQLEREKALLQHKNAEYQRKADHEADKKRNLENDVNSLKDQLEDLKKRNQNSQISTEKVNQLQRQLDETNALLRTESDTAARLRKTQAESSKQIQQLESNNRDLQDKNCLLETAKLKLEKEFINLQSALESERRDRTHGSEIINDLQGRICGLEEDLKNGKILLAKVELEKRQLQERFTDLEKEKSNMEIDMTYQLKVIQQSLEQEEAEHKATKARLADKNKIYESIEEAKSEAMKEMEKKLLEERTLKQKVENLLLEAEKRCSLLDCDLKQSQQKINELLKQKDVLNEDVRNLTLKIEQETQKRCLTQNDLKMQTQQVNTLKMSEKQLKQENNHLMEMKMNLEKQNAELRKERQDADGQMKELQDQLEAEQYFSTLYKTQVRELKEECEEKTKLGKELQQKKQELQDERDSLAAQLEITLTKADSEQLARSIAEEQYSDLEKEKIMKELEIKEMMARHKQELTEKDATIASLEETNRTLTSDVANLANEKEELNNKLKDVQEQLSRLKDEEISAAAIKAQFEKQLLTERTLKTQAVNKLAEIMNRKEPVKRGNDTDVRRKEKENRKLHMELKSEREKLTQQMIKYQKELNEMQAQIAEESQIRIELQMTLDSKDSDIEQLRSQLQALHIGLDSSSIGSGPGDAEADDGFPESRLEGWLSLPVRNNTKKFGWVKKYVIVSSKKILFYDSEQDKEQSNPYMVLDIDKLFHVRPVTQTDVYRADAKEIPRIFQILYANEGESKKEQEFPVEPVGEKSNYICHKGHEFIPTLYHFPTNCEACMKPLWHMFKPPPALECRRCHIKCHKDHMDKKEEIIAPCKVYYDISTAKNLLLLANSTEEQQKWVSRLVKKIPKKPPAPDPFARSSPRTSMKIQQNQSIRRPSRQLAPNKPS
Chain of MRCKα (Q5VT25 whole entry): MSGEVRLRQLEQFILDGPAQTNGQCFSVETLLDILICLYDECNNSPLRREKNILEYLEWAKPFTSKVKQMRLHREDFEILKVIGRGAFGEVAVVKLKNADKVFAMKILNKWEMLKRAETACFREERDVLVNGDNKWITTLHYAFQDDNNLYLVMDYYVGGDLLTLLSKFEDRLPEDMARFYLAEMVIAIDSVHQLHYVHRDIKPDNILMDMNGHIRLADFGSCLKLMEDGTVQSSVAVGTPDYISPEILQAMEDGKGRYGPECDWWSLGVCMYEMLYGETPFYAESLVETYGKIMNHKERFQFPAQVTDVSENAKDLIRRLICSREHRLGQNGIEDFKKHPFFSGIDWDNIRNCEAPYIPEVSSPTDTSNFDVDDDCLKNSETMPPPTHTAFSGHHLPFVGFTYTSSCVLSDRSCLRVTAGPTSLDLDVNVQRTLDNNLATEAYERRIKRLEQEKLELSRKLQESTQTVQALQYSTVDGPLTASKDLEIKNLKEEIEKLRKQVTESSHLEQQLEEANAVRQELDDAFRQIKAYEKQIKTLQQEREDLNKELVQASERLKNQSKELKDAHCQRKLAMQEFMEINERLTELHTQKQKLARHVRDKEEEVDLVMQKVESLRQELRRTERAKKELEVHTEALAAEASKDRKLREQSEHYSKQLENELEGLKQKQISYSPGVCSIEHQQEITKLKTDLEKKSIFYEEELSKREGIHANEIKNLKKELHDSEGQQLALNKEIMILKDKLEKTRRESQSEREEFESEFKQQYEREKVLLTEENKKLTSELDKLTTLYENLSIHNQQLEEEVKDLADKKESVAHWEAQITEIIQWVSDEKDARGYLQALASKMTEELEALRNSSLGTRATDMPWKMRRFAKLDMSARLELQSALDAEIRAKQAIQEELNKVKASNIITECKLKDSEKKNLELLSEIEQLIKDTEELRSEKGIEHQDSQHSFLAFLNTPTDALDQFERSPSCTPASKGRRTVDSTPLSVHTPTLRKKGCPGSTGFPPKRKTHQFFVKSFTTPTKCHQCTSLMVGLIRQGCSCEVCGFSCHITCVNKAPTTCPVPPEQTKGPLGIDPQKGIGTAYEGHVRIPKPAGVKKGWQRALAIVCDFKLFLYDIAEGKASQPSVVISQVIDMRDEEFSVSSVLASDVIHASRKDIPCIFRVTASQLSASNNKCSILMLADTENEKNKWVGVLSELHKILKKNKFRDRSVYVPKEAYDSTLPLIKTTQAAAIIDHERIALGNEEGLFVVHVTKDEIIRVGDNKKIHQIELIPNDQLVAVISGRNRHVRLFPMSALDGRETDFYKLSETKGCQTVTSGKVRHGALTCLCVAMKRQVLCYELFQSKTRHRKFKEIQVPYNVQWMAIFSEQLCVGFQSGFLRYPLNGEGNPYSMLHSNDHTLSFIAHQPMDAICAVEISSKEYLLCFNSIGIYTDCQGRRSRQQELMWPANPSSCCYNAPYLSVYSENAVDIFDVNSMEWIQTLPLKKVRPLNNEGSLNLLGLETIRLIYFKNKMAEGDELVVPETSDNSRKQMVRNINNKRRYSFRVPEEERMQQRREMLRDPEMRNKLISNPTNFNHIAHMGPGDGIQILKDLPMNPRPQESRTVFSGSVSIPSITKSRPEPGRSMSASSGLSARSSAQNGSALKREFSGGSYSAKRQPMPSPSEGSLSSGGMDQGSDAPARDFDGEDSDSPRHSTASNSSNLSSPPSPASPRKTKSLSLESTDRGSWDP

SMILES	Ki [1] [nM]	Ki [2] [nM]	Ki [3] [nM]	Ki [4] [nM]
c1ncc(-c2c[nH]c3nccc(N4CCC[C@H](NC5CC5)C4)c23)cn1 [Example E81, (3S)-N-cyclopropyl-1-(3-pyrimidin-5-yl-1H-pyrrolo[2,3-b]pyridin-4-yl)piperidin-3-amine]	184	0.935	3.36	357
CN[C@H]1CCCN(c2ccnc3[nH]cc(-c4cn[nH]c4)c23)C1 [Example E84, (3S)-N-methyl-1-[3-(1H-pyrazol-4-yl)-1H-pyrrolo[2,3-b]pyridin-4-yl]piperidin-3-amine]	37.2	0.522	3.42	167
CCN[C@H]1CCCN(c2ccnc3[nH]cc(-c4cnn(C)c4)c23)C1 [Example E78, (3S)-N-ethyl-1-[3-(1-methylpyrazol-4-yl)-1H-pyrrolo[2,3-b]pyridin-4-yl]piperidin-3-amine]	61.5	3.48	8.51	105
CN[C@H]1CCCN(c2ccnc3[nH]cc(-c4cnn(C)c4)c23)C1 [Example E55, (3S)-N-methyl-1-[3-(1-methylpyrazol-4-yl)-1H-pyrrolo[2,3-b]pyridin-4-yl]piperidin-3-amine]	129	18.9	7.31	301
c1ncc(-c2c[nH]c3nccc(N4CCCCC4)c23)cn1 [Example E20, 4-(1-piperidyl)-3-pyrimidin-5-yl-1H-pyrrolo[2,3-b]pyridine]	516	14.2	40.7	–
c1ncc(-c2c[nH]c3nccc(N4CCC[C@H](N5CCOCC5)C4)c23)cn1 [Example E96, 4-[(3S)-1-(3-pyrimidin-5-yl-1H-pyrrolo[2,3-b]pyridin-4-yl)-3-piperidyl]morpholine]	876	–	28.8	1300
c1ccc2c(-c3c[nH]c4nccc(N5CCCCC5)c34)n[nH]c2c1 [Example E17, 3-(1H-indazol-3-yl)-4-(1-piperidyl)-1H-pyrrolo[2,3-b]pyridine]	10000	–	696	10000
c1ncc(-c2c[nH]c3nccc(N4CCC5(CCNCC5)C4)c23)cn1 [Example E191, 2-(3-pyrimidin-5-yl-1H-pyrrolo[2,3-b]pyridin-4-yl)-2,8-diazaspiro[4.5]decane]	7.7	–	2.05	9.28
N#Cc1cc(-c2c[nH]c3nccc(N4CCCCC4)c23)cnc1N [Example E7, 2-amino-5-[4-(1-piperidyl)-1H-pyrrolo[2,3-b]pyridin-3-yl]pyridine-3-carbonitrile]	245	–	357	501
CCn1cc(-c2c[nH]c3nccc(N4CCCCC4)c23)cn1 [Example E21, 3-(1-ethylpyrazol-4-yl)-4-(1-piperidyl)-1H-pyrrolo[2,3-b]pyridine]	67.9	–	188	74.9
Nc1ccc(-c2c[nH]c3nccc(N4CCCCC4)c23)cn1 [Example E10, 5-[4-(1-piperidyl)-1H-pyrrolo[2,3-b]pyridin-3-yl]pyridin-2-amine]	45.7	–	51.8	74.9
CN[C@@H]1CCCN(c2ccnc3[nH]cc(-c4cncnc4)c23)C1 [Example E77, (3R)-N-methyl-1-(3-pyrimidin-5-yl-1H-pyrrolo[2,3-b]pyridin-4-yl)piperidin-3-amine]	248	–	10.5	379
c1ncc(-c2c[nH]c3nccc(NCC4CCCNC4)c23)cn1 (stereo not shown) [Example E239]	93.3	–	7.85	103
c1ncc(-c2c[nH]c3nccc(NC4CCNCC4)c23)cn1 [Example E89, N-(4-piperidyl)-3-pyrimidin-5-yl-1H-pyrrolo[2,3-b]pyridin-4-amine]	92.7	–	20.5	109
CNC1CCCN(c2ccnc3[nH]cc(-c4cncnc4)c23)C1 (stereo not shown) [Example E62, N-methyl-1-(3-pyrimidin-5-yl-1H-pyrrolo[2,3-b]pyridin-4-yl)piperidin-3-amine]	314	–	4.1	360
